Results: patent publication US20220117921A1, “PHARMACEUTICAL COMBINATIONS FOR THE TREATMENT OF PAIN” (IMUNEKS FARMA ILAC SANAYI VE TICARET A.S., priority 2018, published 2022)

Test system: female Albino Wistar rats
Assay: Hot plate test (heat induced pain model)
Type: in vivo, rat
Conditions: comparison between groups

In the case of `CC(C(=O)O)c1ccc(-c2ccccc2)c(F)c1` (stereo not shown) [FBP, Flurbiprofen], the “analgesic effect in the hot plate test (in words)” value is reported as “lowest analgesic effect compared to all the other groups except the placebo group”.
